Source: patent US8263606B2 (Xenon Pharmaceuticals Inc., priority 2008, dated 2012)
pIC50: −log10 of the molar value.

How the values were obtained:
CYP3A4 = CYP3A4 (Homo sapiens, UniProt P08684); assay: Cytochrome P450 (CYP450) Inhibition Assay, CYP3A4 (Vivid fluorescence, BOMCC substrate); details: for inhibition at 10 µM: human, P450 Baculosomes (recombinant CYP3A4), probe BOMCC (Vivid substrate)
sodium channel = assay: Guanidine influx assay (14C-guanidine radiotracer flux, in vitro); type: cell-based, human or rat; details: guanidine influx assay using a known cell line that expresses a sodium channel; activity level class
Source text: This example describes an in vitro assay for testing and profiling test agents against human or rat sodium channels stably expressed in cells of either an endogenous or recombinant origin. The assay is also useful for determining the IC50 of a sodium channel blocking compound. The assay is based on the guanidine flux assay described by Reddy, N. L., et al., J. Med. Chem. (1998), 41(17):3298-302.
The guanidine influx assay is a radiotracer flux assay used to determine ion flux activity of sodium channels in a high-throughput microplate-based format. The assay uses ^14C-guanidine hydrochloride in combination with various known sodium channel modulators, to assay the potency of test agents. Potency is determined by an IC50 calculation. Selectivity is determined by comparing potency of the compound for the channel of interest to its potency against other sodium channels (also called ‘selectivity profiling’).
Each of the test agents is assayed against cells that express the channels of interest. Voltage gated sodium channels are either TTX sensitive or insensitive. This property is useful when evaluating the activities of a channel of interest when it resides in a mixed population with other sodium channels. The following Table 1 summarizes cell lines useful in screening for a certain channel activity in the presence or absence of TTX.
It is also possible to employ recombinant cells expressing these sodium channels. Cloning and propagation of recombinant cells are known to those skilled in the art (see, for example, Klugbauer, N, et al., EMBO J. (1995), 14(6):1084-90; and Lossin, C., et al., Neuron (2002), 34, pp. 877-884).
Cells expressing the channel of interest are grown according to the supplier or in the case of a recombinant cell in the presence of selective growth media such as G418 (Gibco/Invitrogen). The cells are disassociated from the culture dishes with an enzymatic solution (Ix) Trypsin/EDTA (Gibco/Invitrogen) and analyzed for density and viability using haemocytometer (Neubauer). Disassociated cells are washed and resuspended in their culture media then plated into Scintiplates (Beckman Coulter Inc.) (approximately 100,000 cells/well) and incubated at 37° C./5% CO2 for 20-24 hours. After an extensive wash with Low sodium HEPES-buffered saline solution (LNHBSS) (150 mM Choline Chloride, […] (Sigma), 1 mM Calcium Chloride, 5 mM Potassium Chloride, 1 mM Magnesium Chloride, 10 mM Glucose) agents diluted with LNHBSS are added to each well. (Varying concentrations of test agent may be used). The activation/radiolabel mixture contains aconitine (Sigma) to increase the percentage of time that the sodium channels are open, and ^14C-guanidine hydrochloride (ARC) to measure flux through the voltage-gated sodium channels.
After loading the cells with test agent and activation/radiolabel mixture, the Scintiplates are incubated at ambient temperature. Following the incubation, the Scintplates are extensively washed with LNHBSS supplemented with guanidine (Sigma). The Scintiplates are dried and then counted using a Wallac MicroBeta TriLux (Perkin-Elmer Life Sciences). The ability of the test agent to block sodium channel activity is determined by comparing the amount of ^14C-guanidine present inside the cells expressing the different sodium channels.
The IC50 value of a test agent for a specific sodium channel may be determined using the above general method. […] Typically the mid-point concentration of test agent is set at 1 μM, and sequential concentrations of half dilutions greater or smaller are applied (e.g. 0.5 μM; 5 μM and 0.25 μM; 10 μM and 0.125 μM; 20 μM etc.). The IC50 curve is calculated using the 4 Parameter Logistic Model or Sigmoidal Dose-Response Model formula (fit=(A+((B−A)/(1+((C/x)^D)))).
The fold selectivity, factor of selectivity or multiple of selectivity, is calculated by dividing the IC50 value of the test sodium channel by the reference sodium channel, for example, Nav1.5. […]

Chain of CYP3A4 (P08684 whole entry): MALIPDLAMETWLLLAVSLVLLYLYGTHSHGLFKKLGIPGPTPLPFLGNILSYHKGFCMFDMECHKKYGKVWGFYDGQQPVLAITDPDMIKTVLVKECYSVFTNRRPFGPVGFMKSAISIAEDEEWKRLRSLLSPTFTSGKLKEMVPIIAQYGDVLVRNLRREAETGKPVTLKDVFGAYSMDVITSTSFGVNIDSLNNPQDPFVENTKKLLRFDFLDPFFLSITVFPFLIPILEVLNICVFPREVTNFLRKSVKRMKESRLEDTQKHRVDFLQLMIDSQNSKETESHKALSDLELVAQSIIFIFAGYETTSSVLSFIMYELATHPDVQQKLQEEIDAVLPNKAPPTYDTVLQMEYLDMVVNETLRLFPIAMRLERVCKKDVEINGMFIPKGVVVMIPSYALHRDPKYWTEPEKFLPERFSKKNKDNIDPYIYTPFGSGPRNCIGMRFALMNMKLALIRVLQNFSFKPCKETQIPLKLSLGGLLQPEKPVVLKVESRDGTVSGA

Row | inhibition at 10 µM (CYP3A4) [%] | pIC50 (sodium channel) | Structure (SMILES) | % Inhibition of CYP3A4 (CYP3A4; at 10 μM)
1 | > 50 |  | CC(C)NC(=O)N1CCC(CN2C(=O)C3(COc4cc5c(cc43)CCO5)c3ccccc32)C1 (centres unmarked) [11.62, N-(1-methylethyl)-3-[(2′-oxo-5,6-dihydrospiro[benzo[1,2-b:5,4-b′]difuran-3,3′-indol]-1′(2′H)-yl)methyl]pyrrolidine-1-carboxamide] | 
2 | > 50 | 7.00 to 9.00 | O=C1N(Cc2cc(Br)cs2)c2ccccc2C12COc1cc3c(cc12)OCO3 (centres unmarked) [Example 1.7, 1′-[(4-bromo-2-thienyl)methyl]spiro[furo[2,3-f][1,3]benzodioxole-7,3′-indol]-2′(1′H)-one] | 
3 | > 50 | 6.00 to 7.00 | COc1cncc(N2C(=O)C3(COc4cc5c(cc43)OCO5)c3ccccc32)c1 (centres unmarked) [Example 1.17, 1′-(5-methoxypyridin-3-yl)spiro[furo[2,3-f][1,3]benzodioxole-7,3′-indol]-2′(1′H)-one] | 
4 | > 50 | 5.00 to 6.00 | O=C1N(Cc2ccc(C(F)(F)F)o2)c2ccccc2C12COc1cc(Br)ccc12 (centres unmarked) [Example 2.22, 6-bromo-1′-((5-(trifluoromethyl)furan-2-yl)methyl)-2H-spiro[benzofuran-3,3′-indolin]-2′-one] | 
5 | > 50 | 6.00 to 7.00 | O=C1N(Cc2ccc(C(F)(F)F)o2)c2ccccc2C12COc1ccc(Br)cc12 (centres unmarked) [Example 2.23, 5-bromo-1′-((5-(trifluoromethyl)furan-2-yl)methyl)-2H-spiro[benzofuran-3,3′-indolin]-2′-one] | 
6 | > 50 | 5.00 to 6.00 | O=C1N(C[C@H]2CCCO2)c2ccccc2C12COc1cc3c(cc12)COCO3 (stereo partly drawn) [Example 2.31, 1′-[(2R)-tetrahydrofuran-2-ylmethyl]-4H-spiro[furo[3,2-g][1,3]benzodioxine-6,3′-indol]-2′(1′H)-one] | 
7 | > 50 | 6.00 to 7.00 | COc1ccc(CN2C(=O)C3(COc4cc5c(cc43)OCCO5)c3c2ccc2ncsc32)cc1 (centres unmarked) [Example 2.66, 6′-(4-methoxybenzyl)-2,3-dihydrospiro[furo[2,3-g][1,4]benzodioxine-8,8′-[1,3]thiazolo[5,4-e]indol]-7′(6′H)-one] | 
8 | > 50 | 5.00 to 6.00 | O=C1Nc2ccccc2C12COc1cc(Br)ccc12 (centres unmarked) [Example 3.2, 6-bromospiro[1-benzofuran-3,3′-indol]-2′(1′H)-one] | 
9 | > 50 | 5.00 to 6.00 | O=C1Nc2ccccc2C12COc1ccc(F)cc12 (centres unmarked) [Example 3.8, 5-fluoro-spiro[1-benzofuran-3,3′-indol]-2′(1′H)-one] | 
10 | < 50 | 5.00 to 6.00 | O=C1Nc2ccccc2C12CCOc1cc3c(cc12)CCO3 (centres unmarked) [Example 3.24, 2,3,6,7-tetrahydrospiro[furo[3,2-g]chromene-5,3′-indol]-2′(1′H)-one] | 
11 | < 50 | 6.00 to 7.00 | O=C1Nc2cccc(Br)c2C12COc1cc3c(cc12)OCCO3 (centres unmarked) [Example 3.32, 4′-bromo-2,3-dihydrospiro[furo[2,3-g][1,4]benzodioxine-8,3′-indol]-2′(1′H)-one] | 
12 | < 50 | 5.00 to 6.00 | O=C1Nc2ccccc2C12COc1cc3c(cc12)S(=O)(=O)C=C3 (centres unmarked) [Example 3.40, spiro[indole-3,3′-thieno[2,3-f][1]benzofuran]-2(1′H)-one 5,5′-dioxide] | 
13 | < 50 | 5.00 to 6.00 | COCCOc1ccc2c(c1)C1(CO2)C(=O)Nc2ccccc21 (centres unmarked) [Example 3.47, 5-(2-methoxyethoxy)spiro[1-benzofuran-3,3′-indol]-2′(1′H)-one] | 
14 | > 50 | 5.00 to 6.00 | O=C1Nc2ccc3ncsc3c2C12COc1cc3c(cc12)OCCO3 (centres unmarked) [Example 3.49, 2,3-dihydrospiro[furo[2,3-g][1,4]benzodioxine-8,8′-[1,3]thiazolo[5,4-e]indol]-7′(6′H)-one] | 
15 | < 50 | 5.00 to 6.00 | COc1cc2c(c(OC)c1)C1(COc3cc4c(cc31)OCCO4)C(=O)N2 (centres unmarked) [Example 3.50, 4′,6′-dimethoxy-2,3-dihydrospiro[furo[2,3-g][1,4]benzodioxine-8,3′-indol]-2′(1′H)-one] | 
16 | > 50 | 7.00 to 9.00 | Cn1c(CN2C(=O)C3(COc4cc5c(cc43)CCO5)c3ccccc32)cnc1Cl (centres unmarked) [Example 4.2, 1′-[(2-chloro-1-methyl-1H-imidazol-5-yl)methyl]-5,6-dihydrospiro[benzo[1,2-b:5,4-b′]difuran-3,3′-indol]-2′(1′H)-one] | 
17 | > 50 | 7.00 to 9.00 | CC(C)CCN1C(=O)C2(COc3cc4c(cc32)CCO4)c2ccccc21 (centres unmarked) [Example 4.4, 1′-(3-methylbutyl)-5,6-dihydrospiro[benzo[1,2-b:5,4-b′]difuran-3,3′-indol]-2′(1′H)-one] | 
18 | > 50 |  | CCCCCCN1C(=O)C2(COc3cc4c(cc32)OCCO4)c2ccccc21 (centres unmarked) [Example 7.5, 1′-hexyl-2,3-dihydrospiro[furo[2,3-g][1,4]benzodioxine-8,3′-indol]-2′(1′H)-one] | 
19 | < 50 |  | O=C1N(CCC2CC2)c2ccccc2C12COc1cc3c(cc12)OCCO3 (centres unmarked) [Example 7.6] | 
20 | < 50 |  | CCOCCN1C(=O)C2(COc3cc4c(cc32)OCCO4)c2ccccc21 (centres unmarked) [Example 7.7] | 
21 | < 50 |  | COCCCN1C(=O)C2(COc3cc4c(cc32)OCCO4)c2ccccc21 (centres unmarked) [Example 7.9] | 
22 | < 50 |  | CN(C)C(=O)c1cccc2c1C1(COc3cc4c(cc31)OCCO4)C(=O)N2C (centres unmarked) [Example 16.78, N,N,1′-trimethyl-2′-oxo-1′,2,2′,3-tetrahydrospiro[furo[2,3-g][1,4]benzodioxine-8,3′-indole]-4′-carboxamide] | 
23 | > 50 |  | CN1C(=O)C2(COc3cc4c(cc32)OCCO4)c2c(Oc3cccc(N4CCOCC4)c3)cccc21 (centres unmarked) [Example 16.81, 1′-methyl-4′-(3-morpholin-4-ylphenoxy)-2,3-dihydrospiro[furo[2,3-g][1,4]benzodioxine-8,3′-indol]-2′(1′H)-one] | 
24 | < 50 |  | COc1ccc(Oc2cccc3c2C2(COc4cc5c(cc42)OCCO5)C(=O)N3C)cn1 (centres unmarked) [Example 16.82, 4′-[(6-methoxypyridin-3-yl)oxy]-1′-methyl-2,3-dihydrospiro[furo[2,3-g][1,4]benzodioxine-8,3′-indol]-2′(1′H)-one] | 
25 | > 50 |  | CN1C(=O)C2(COc3cc4c(cc32)OCCO4)c2c(Oc3ccc4c(c3)OCO4)cccc21 (centres unmarked) [Example 16.83, 4′-(1,3-benzodioxol-5-yloxy)-1′-methyl-2,3-dihydrospiro[furo[2,3-g][1,4]benzodioxine-8,3′-indol]-2′(1′H)-one] | 
26 | > 50 |  | CN1C(=O)C2(COc3cc4c(cc32)OCCO4)c2c(OCc3ccc(F)cc3)cccc21 (centres unmarked) [Example 16.86, 1′-methyl-4-(4-fluorobenzyloxy)-2,3-dihydrospiro[furo[2,3-g][1,4]benzodioxine-8,3′-indol]-2′(1′H)-one] | 
27 |  |  | CC(=O)c1cccc2c1C1(COc3cc4c(cc31)OCCO4)C(=O)N2C (centres unmarked) [Example 24, 4′-acetyl-t-methyl-2,3-dihydrospiro[furo[2,3-g][1,4]benzodioxine-8,3′-indol]-2′(1′H)-one] | A (percent inhibition of less than 50% at 10 μM)

Row | Structure (SMILES) | inhibition at 10 µM (CYP3A4) [%] | pIC50 (sodium channel) | % Inhibition of CYP3A4 (CYP3A4; at 10 μM)
28 | O=C1N(C[C@H]2CCCO2)c2ccccc2[C@]12COc1cc3c(cc12)CCO3 [Example 11.62, (3S)-1′-[(2R)-tetrahydrofuran-2-ylmethyl]-5,6-dihydrospiro[benzo[1,2-b:5,4-b′]difuran-3,3′-indol]-2′(1′H)-one] | < 50 |  | 
